In publication PMC9228955, “Synthesis, Physicochemical, Labeling and In Vivo Characterization of ^44Sc-Labeled DO3AM-NI as a Hypoxia-Sensitive PET Probe” (Pharmaceuticals, 2022):
Where two headings read alike, the source gives them in different places. Blank lines part the entries; values can stand above or below the compound they belong to.

How the values were obtained:
[1] = 25 °C, cited from earlier work
[2] = 25 °C, cited from earlier work; remark: listed apart in the source
[3] = Stability constant of Sc(III) complex by 1H and 45Sc NMR batch samples and pH-potentiometric titration; pSc calculation; assay type: physicochemical; details: for pSc (-log[Sc(III)]free): [Sc(III)]tot = 1 × 10^−8 M, [L]tot = 1 × 10^−7 M, pH = 7.4
Protocol: The stability constant of the Sc(DO3AM-NI) complex was assessed by ^1H and ^45Sc-NMR studies using samples prepared in the 0.055–0.195 M acid concentration range. […] Absence of protonation and the presence of a ternary hydroxydo species formation with KScL•OH = 10.88(5) were detected at our experimental conditions. The NMR samples contained 3.32 mM ligand, ScCl3 and a constant ionic strength of 0.15 M NaCl. The samples were thermostated at 37 °C, and their ^1H- and ^45Sc-NMR spectra were recorded after 60 days. In order to ensure that the equilibrium in the samples was attained, the ^1H and ^45Sc-NMR measurements were repeated again 90 days later. The spectra were practically identical with the spectra recorded at 60 days (Figures S4 and S5). As expected, the thermodynamic stability constant of the Sc(DO3AM-NI) complex (log KScL = 22.36(4)) was considerably lower than those of Sc(III) complexes formed with DOTA, DTPA or AAZTA ligands (Table 1). A moderate decrease in terms of thermodynamic stability constants was already observed for the complexes of DO3A-monamides formed with Gd(III) ions in comparison to the stability of parent Gd(DOTA)^− chelate. Despite the lower stability constant of the complex, the Sc(III) ion was complexed completely around pH = 2.0 (in a millimolar concentration range, see Figure 2). However, it might be misleading to directly compare the stability constants of the complexes formed by ligands of different basicity (as it depends on the basicity of the ligand); therefore, we calculated and compared the pSc values (which could be treated as conditional constants) for the complexes shown in Table 1 by taking the protonation constants of ligands, the stability constants of the complex species present in solution and the hydrolysis of the Sc(III) ion (according to Ref. [23]: log βSc(OH) = −4.3, log βSc(OH)2 = −9.7, log βSc(OH)3 = −16.1, log βSc(OH)4 = −26.0 and log βSc2(OH)4 = −6.0) into account.
(§1) The equilibrium measurements were performed at constant ionic strength maintained by 0.15 M NaCl at 37 °C. For determining the protonation constants of DO3AM-NI, two parallel pH-potentiometric titrations were performed with 0.1611 M NaOH in a 5.00 cm^3 sample containing the ligand at the concentration of 2.76 mM. The stability constant of Sc(DO3AM-NI) was assessed by ^1H and ^45Sc NMR in 0.7 mL “batch” samples containing the metal and the ligand at 3.32 mM and different concentrations of strong acid (0.05–0.20 M) aged 90 days (see below). The formation of protonated and ternary hydroxydo complex species was probed by pH-potentiometric titration by titrating the preformed complex (at a concentration of 1.95 mM) with standardized NaOH solution. For the calculation of the logKMH-1L value, the VNaOH–pH data used were obtained in the pH range 1.68–11.85. The pH-potentiometric titrations were carried out with a Metrohm 785 DMP Titrino titration workstation with the use of a Metrohm-6.0233.100-combined electrode calibrated via a two-point calibration routine using KH-phthalate (pH = 4.005) and borax (pH = 9.177) buffers. The titrated samples were stirred with a magnetic stirrer, and N2 gas was bubbled through the solutions to avoid the effect of CO2. For the calculation of [H^+] from the measured pH values, the method proposed by Irving et al. was applied. For this, a 0.01M HCl solution was titrated with the standardized NaOH solution in the presence of 0.15 M NaCl ionic strength at 37 °C. The differences between the measured (pHread) and calculated pH (-log[H^+]) values were used to obtain the equilibrium H^+ concentration from the pHmeas values during the titrations. […] For the calculation of the equilibrium constants, the PSEQUAD program was used.
^1H- and ^45Sc-NMR measurements (400 MHz and 97 MHz, respectively) were performed with a Bruker DRX 400 (9.4 T) spectrometer equipped with a Bruker VT-1000 thermocontroller and a BB inverse z-gradient probe (5 mm). […]

[4] = pH-potentiometric determination of ligand protonation constants; assay type: physicochemical; details: 0.15 M NaCl, 37 °C
Protocol: Equilibrium measurements were commenced by determining the protonation constants of the ligand, measured at 37 °C (I = 0.15 M NaCl) owing to the relevance of the chelate under in vivo conditions. The protonation constants obtained by fitting the pH-potentiometric data for the ligand DO3AM-NI are shown in Table 1 along with the literature data published for DOTA and certain DO3A-monoamides (DO3A-mono-N-buthylamide as well as that of a hypoxia-sensitive MRI probe reported by some of us a couple of years ago). Five protonation steps were observed by performing the titration in the pH range of 1.72–11.85 for the DO3AM-NI monoamide type ligand, two of which (characterized by high constants) describe the protonation of nitrogen atoms in the macrocycle (positioned trans- to each other), while the remaining log Ki^H values (much lower) likely reflect the protonation of the carboxylates. The replacement of an acetate group of DOTA by an amide moiety results in a decrease in the protonation sites of the ligand, and as a consequence the overall basicity of the ligand (expressed as the sum of the protonation constants, log β015) was as expected, predicted from the data published in literature. What is more, the formation of a weak Na^+ complex (originating from the ionic strength) competing with the first protonation process may be responsible of the lower value of the first protonation constant.
as §1

[5] = constants at 0.1 M Me4NCl, 25 °C from Ref. 19

SMILES: CC1(N(CC(=O)O)CC(=O)O)CN(CC(=O)O)CCN(CC(=O)O)C1 [AAZTA]
log KScL•H (protonation constant of Sc(III) complex) ([1]; 0.1 M KCl): 0.86
log KSc•L (stability constant of Sc(III) complex) ([1]; 0.1 M KCl): 27.69
log K1^H ([2]; 0.1 M KCl): 11.26
log K2^H ([2]; 0.1 M KCl): 6.62
log K3^H ([2]; 0.1 M KCl): 3.86
log K4^H ([2]; 0.1 M KCl): 2.45
log K5^H ([2]; 0.1 M KCl): 1.88
log K6^H ([2]; 0.1 M KCl): 1.46
pSc (-log[Sc(III)]free) ([3]; constants at 0.1 M KCl, 25 °C from Ref. 20): 24.72

SMILES: O=C(O)CN1CCN(CC(=O)O)CCN(CC(=O)NCCn2ccnc2[N+](=O)[O-])CCN(CC(=O)O)CC1 [DO3AM-NI]
log K1^H [4]: 8.79(1)
log K2^H [4]: 8.59(1)
log K3^H [4]: 4.23(1)
log K4^H [4]: 2.49(1)
log K5^H [4]: 1.00(4)
log β015 (sum of the protonation constants) [4]: 25.10
log KScL•OH (ternary hydroxydo species) ([3]; 0.15 M NaCl, 37 °C): 10.88(5)
log KSc•L (stability constant of Sc(III) complex) ([3]; 0.15 M NaCl, 37 °C): 22.36(4)
pSc (-log[Sc(III)]free) ([3]; constants at 0.15 M NaCl, 37 °C): 20.74

SMILES: CCCCNC(=O)CN1CCN(CC(=O)O)CCN(CC(=O)O)CCN(CC(=O)O)CC1 [DO3AM^nBu, DO3A-mono-N-buthylamide]
log K1^H ([2]; 1.0 M KCl): 9.78
log K2^H ([2]; 1.0 M KCl): 9.05
log K3^H ([2]; 1.0 M KCl): 4.53
log K4^H ([2]; 1.0 M KCl): 3.17
log K5^H ([2]; 1.0 M KCl): 2.19
log β015 (sum of the protonation constants) ([2]; 1.0 M KCl): 28.72

Continued, in another order:

pSc (-log[Sc(III)]free) [3, 5]: 23.92
SMILES: O=C(O)CN1CCN(CC(=O)O)CCN(CC(=O)O)CCN(CC(=O)O)CC1 [DOTA, 1,4,7,10-tetraazacyclododecane-1,4,7,10-tetraacetic acid]
log KScL•H (protonation constant of Sc(III) complex) ([1]; 0.1 M Me4NCl): 1.00
log KSc•L (stability constant of Sc(III) complex) ([1]; 0.1 M Me4NCl): 30.79
log K1^H ([2]; 0.1 M Me4NCl): 12.90
log K2^H ([2]; 0.1 M Me4NCl): 9.72
log K3^H ([2]; 0.1 M Me4NCl): 4.62
log K4^H ([2]; 0.1 M Me4NCl): 4.15
log K5^H ([2]; 0.1 M Me4NCl): 2.29
log K6^H ([2]; 0.1 M Me4NCl): 1.34
log β015 (sum of the protonation constants) ([2]; 0.1 M Me4NCl): 33.68

pSc (-log[Sc(III)]free) [3, 5]: 23.88
SMILES: O=C(O)CN(CCN(CC(=O)O)CC(=O)O)CCN(CC(=O)O)CC(=O)O [DTPA]
log KScL•H (protonation constant of Sc(III) complex) ([1]; 0.1 M Me4NCl): 1.36
log KScL•OH (ternary hydroxydo species) ([1]; 0.1 M Me4NCl): 12.44
log KSc•L (stability constant of Sc(III) complex) ([1]; 0.1 M Me4NCl): 27.43
log K1^H ([2]; 0.1 M Me4NCl): 10.65
log K2^H ([2]; 0.1 M Me4NCl): 8.66
log K3^H ([2]; 0.1 M Me4NCl): 4.36
log K4^H ([2]; 0.1 M Me4NCl): 2.82
log K5^H ([2]; 0.1 M Me4NCl): 2.03
log K6^H ([2]; 0.1 M Me4NCl): 1.31
log K7^H ([2]; 0.1 M Me4NCl): 1.30
log β015 (sum of the protonation constants) ([2]; 0.1 M Me4NCl): 28.52
